We go through 17 molecules from patent publication US20230303581A1, “ORALLY BIOAVAILABLE, BRAIN-PENETRANT COMPOUND WITH SELECTIVITY FOR THE CANNABINOID TYPE 2 RECEPTOR WITH POTENTIAL USE TOWARDS VISCERAL PAIN MANAGEMENT AND NEURODEGENERATIVE DISORDERS” (University of Mississippi, priority 2022, published 2023).

One data set deals with human CB2 receptors (Homo sapiens (Human), UniProt P34972). As to the kind of experiment: Cannabinoid receptor binding (displacement) assay, CB2. Conditions: for Displacement of [3H]CP-55,940 from CB2: 10 μM compound. The method, then: (§1) The affinities of the compounds for CB1 and CB2 receptors were examined using displacement assays, as previously described. Briefly, cell membranes from CHO cells expressing human CB1 or human CB2 receptors were isolated using differential centrifugation. Test compounds reconstituted in DMSO and were incubated with the isolated membrane in binding buffer (50 mM Tris-HCl, 1 mM EDTA, 3 mM MgCl2, 5 mg/mL BSA, pH 7.4) along with 2.5 nM [^3H]CP-55,940. Total binding was assessed in the presence of equal concentration of DMSO, while non-specific binding was determined in the presence of 10 μM CP-55,940, and background binding was determined in wells lacking membrane. Following incubation at 30° C. for 60 min, the binding reactions were terminated by vacuum filtration through Whatman GF/C filters. The filters were then washed twice with ice-cold buffer (50 mM Tris-HCl, 1 mg/mL BSA). Liquid scintillation cocktail was added to each well and the total tritiated counts per minute were analyzed using a TopCount scintillation counter. Background counts were subtracted from all wells and the percent displacement from total binding was calculated.
Sequence of human CB2 receptors (P34972 whole entry): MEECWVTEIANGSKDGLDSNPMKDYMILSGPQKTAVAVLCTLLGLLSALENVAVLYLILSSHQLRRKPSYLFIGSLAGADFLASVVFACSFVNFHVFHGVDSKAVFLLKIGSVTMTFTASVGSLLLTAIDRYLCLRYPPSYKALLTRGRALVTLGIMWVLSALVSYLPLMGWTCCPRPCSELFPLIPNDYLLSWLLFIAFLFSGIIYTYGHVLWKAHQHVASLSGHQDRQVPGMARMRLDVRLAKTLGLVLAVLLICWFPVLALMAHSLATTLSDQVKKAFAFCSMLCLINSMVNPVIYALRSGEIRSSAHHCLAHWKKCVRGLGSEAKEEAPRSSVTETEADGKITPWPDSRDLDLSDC
(§2) The compounds were initially screened at 10 μM concentrations. If they produced at least ±30% displacement of the radioligand, then full competition curves were constructed. Ki values were calculated using GraphPad Prism (San Diego, CA, USA) and Kd values determined using a 1 site fit. All assays were run in technical and biological replicates so that the n=5-6. PK Evaluation in CD-1 Mice
(§3) The CB1/CB2 receptor binding activities of analogs 4a-4q were assessed via radioactivity-based competitive binding assays using [^3H]CP55,940, an extensively studied radioligand that is frequently used for cannabinoid assays. […] In preliminary screening, all 17 synthetic PBD compounds (4a-4q) were subjected to in vitro CB1 and CB2 binding assays at a single concentration of 10 μM. […] Therefore, the most promising ligands (4k and 4q) were selected for assessment in full competition curves against CB1 and CB2.
A general note: In a radioligand displacement assay an active substance lowers the binding of a labelled ligand.

The next data set concerns the target human CB1 receptors (Homo sapiens (Human), UniProt P21554). As to the kind of experiment: Cannabinoid receptor binding (displacement) assay, CB1. Conditions: 10 μM compound. The method, then:
as §1, §2, §3

In data set [1] the test system is mice. As to the kind of experiment: Conditioned place preference test. It is filed as in vivo. Conditions: FIG. 4. From the text:
Conditioned place preference testing is used to assess a compound's rewarding effects in order to gauge potential abuse liability. Mice are “conditioned” to associate distinctly lighted/colored/textured chambers with a rewarding drug (e.g., opioid) or no drug. If the mice sense a rewarding effect of the drug, they will prefer to occupy the chamber associated with that drug. FIG. 4 presents the results of a conditioned place preference test for 3 groups of mice (i.e., vehicle, oxycodone treated, and compound 4k treated).

In data set [2] the test system is mice. The data set can be described thus: Acetic acid-induced writhing test. It is filed as in vivo. Conditions: oxycodone 3 mg/kg, compound 4k 5 mg/kg, versus vehicle. The source says: Acetic acid-induced writhing is widely used for assessing analgesic effects against inflammatory pain of peripheral origin.
On the technique in general: Writhing tests count abdominal constrictions after an irritant is injected.

Sequence of human CB1 receptors (P21554 whole entry): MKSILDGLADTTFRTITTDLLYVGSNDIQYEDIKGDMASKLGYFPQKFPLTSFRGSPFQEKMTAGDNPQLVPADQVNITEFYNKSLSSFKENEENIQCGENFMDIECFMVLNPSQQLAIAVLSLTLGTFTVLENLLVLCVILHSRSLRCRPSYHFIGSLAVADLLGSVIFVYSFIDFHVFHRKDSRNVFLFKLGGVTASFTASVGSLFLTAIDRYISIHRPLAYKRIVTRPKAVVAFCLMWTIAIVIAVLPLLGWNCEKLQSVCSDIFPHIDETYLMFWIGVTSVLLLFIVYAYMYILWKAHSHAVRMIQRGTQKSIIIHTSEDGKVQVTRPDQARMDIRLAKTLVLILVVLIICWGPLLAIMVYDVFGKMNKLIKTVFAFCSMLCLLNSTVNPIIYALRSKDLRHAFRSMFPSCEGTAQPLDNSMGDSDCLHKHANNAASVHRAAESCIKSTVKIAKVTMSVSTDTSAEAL

As for `O=C1c2ccccc2N/C(=N/N=C/c2ccc[nH]2)[C@@H]2CCCN12` [Compound 4a], at human CB2 receptors, the “Displacement of [3H]CP-55,940 from CB2” value is −12.50%. Further, the “Displacement of [3H]CP-55,940 from CB1” value on human CB1 receptors is −3.09%.

With `Cn1ccnc1/C=N/N=C1/Nc2ccccc2C(=O)N2CCC[C@@H]12` [Compound 4b], the “Displacement of [3H]CP-55,940 from CB2” value on human CB2 receptors was −14.48%. Moreover, at human CB1 receptors, the “Displacement of [3H]CP-55,940 from CB1” value was −13.99%.

With `Cc1ncc(/C=N/N=C2/Nc3ccccc3C(=O)N3CCC[C@@H]23)s1` [Compound 4d], the “Displacement of [3H]CP-55,940 from CB2” value on human CB2 receptors is −33.65%. Moreover, the “Displacement of [3H]CP-55,940 from CB1” value at human CB1 receptors is given as −27.99%.

Regarding `Cc1ncsc1/C=N/N=C1/Nc2ccccc2C(=O)N2CCC[C@@H]12` [Compound 4e], on human CB2 receptors, the “Displacement of [3H]CP-55,940 from CB2” value amounted to 19.86%. For the same molecule, the “Displacement of [3H]CP-55,940 from CB1” value on human CB1 receptors stood at 21.88%.

On to `Nc1ncc(/C=N/N=C2/Nc3ccccc3C(=O)N3CCC[C@@H]23)s1` [Compound 4f], for which the “Displacement of [3H]CP-55,940 from CB2” value on human CB2 receptors was found to be 3.72%. Moreover, at human CB1 receptors, the “Displacement of [3H]CP-55,940 from CB1” value was 1.75%.

Regarding `O=C1c2ccccc2N/C(=N/N=C/c2sc(Cl)nc2Cl)[C@@H]2CCCN12` [Compound 4g], the “Displacement of [3H]CP-55,940 from CB2” value at human CB2 receptors is recorded as 29.27%. The “Displacement of [3H]CP-55,940 from CB1” value on human CB1 receptors came out at 24.19%.

Take `Cc1c(/C=N/N=C2/Nc3ccccc3C(=O)N3CCC[C@@H]23)sc2ccccc12` [Compound 4l]: the “Displacement of [3H]CP-55,940 from CB2” value on human CB2 receptors is 51.73%. Further, on human CB1 receptors, the “Displacement of [3H]CP-55,940 from CB1” value is on record as 77.17%.

On to `O=C1c2ccccc2N/C(=N/N=C/c2sc3ccccc3c2Cl)[C@@H]2CCCN12` [Compound 4m], for which, on human CB2 receptors, the “Displacement of [3H]CP-55,940 from CB2” value worked out at 50.05%. The “Displacement of [3H]CP-55,940 from CB1” value on human CB1 receptors was 5.22%.

With `Cn1cc(/C=N/N=C2/Nc3ccccc3C(=O)N3CCC[C@@H]23)c2ccccc21` [Compound 4o], the “Displacement of [3H]CP-55,940 from CB2” value on human CB2 receptors is given as 1.01%. Also, on human CB1 receptors, the “Displacement of [3H]CP-55,940 from CB1” value is 5.09%.

The Ki is the equilibrium dissociation constant of an inhibitor or competing ligand from its target. Low values mean higher affinity, high ones lower affinity. `O=C1c2ccccc2N/C(=N/N=C/C23CC4CC(CC(C4)C2)C3)[C@@H]2CCCN12` [Compound 4q] displayed a Ki on human CB2 receptors (CB2, full competition curves) of 137 nM.

In the case of `COc1ccc2c3c1O[C@H]1C(=O)CC[C@@]4(O)[C@@H](C2)N(C)CC[C@]314` [oxycodone, reference compound], the “place preference (rewarding effect, abuse liability)” value with mice [1] is on record as “clear place preference”. Moreover, the “writhing over 30 minutes” value with mice [2] is listed as “attenuate writhing”.

Regarding “(S,E)-11-[2-(Benzo[b]thiophenylmethylene)hydrazono]-pyrrolo[2,1-c][1,4]Benzodiazepine [Compound 4h]”, at human CB2 receptors, the “Displacement of [3H]CP-55,940 from CB2” value is listed as 61.05%. On human CB1 receptors, the “Displacement of [3H]CP-55,940 from CB1” value is 36.88%.

Regarding “(S,E)-11-[(5-Methoxy-1H-indol-3-yl)methylene)hydrazono]-pyrrolo[2,1-c][1,4]Benzodiazepine [Compound 4p]”, the “Displacement of [3H]CP-55,940 from CB2” value on human CB2 receptors is reported as −29.47%. For the same molecule, the “Displacement of [3H]CP-55,940 from CB1” value at human CB1 receptors is on record as −27.20%.

On to “(S,E)-11-[(Benzo[b]thiophen-2-ylmethylene)hydrazono]-7-bromo-pyrrolo[2,1-c][1,4]Benzodiazepine [Compound 4i]”, for which the “Displacement of [3H]CP-55,940 from CB2” value at human CB2 receptors amounted to 36.39%. At human CB1 receptors, the “Displacement of [3H]CP-55,940 from CB1” value is 49.82%.

As to “(S,E)-11-[(Benzo[b]thiophen-3-ylmethylene)hydrazono]-7-bromo-pyrrolo[2,1-c][1,4]Benzodiazepine [Compound 4j]”, at human CB2 receptors, the “Displacement of [3H]CP-55,940 from CB2” value is 65.24%. Moreover, at human CB1 receptors, the “Displacement of [3H]CP-55,940 from CB1” value was determined as 66.81%.

For the molecule “(S,E)-11-[(Benzo[d]thiazol-2-ylmethylene)hydrazono]-pyrrolo[2,1-c][1,4] Benzodiazepine [Compound 4n]”, on human CB2 receptors, the “Displacement of [3H]CP-55,940 from CB2” value is on record as 43.34%. Besides, on human CB1 receptors, the “Displacement of [3H]CP-55,940 from CB1” value was 44.14%.

Regarding “(S,E)-11-[(Thiazol-5-ylmethylene)hydrazono]-pyrrolo[2,1-c][1,4] Benzodiazepine [Compound 4c]”, the “Displacement of [3H]CP-55,940 from CB2” value at human CB2 receptors was 3.06%. For the same molecule, the “Displacement of [3H]CP-55,940 from CB1” value at human CB1 receptors worked out at 0.25%.
